Laboratory results: patent US11642336B2, “5-HT2A agonists for use in treatment of depression” (priority 2019, dated 2023)
Structures can show the parent of a compound that is named as a salt. Where two headings read alike, the source gives them in different places. Marks after values point to notes of the source that are not given here.

Key:
Type in all cases: cell-based
human 5-HT2A [1] = biological target: T1, human 5-HT2A (Homo sapiens (Human), UniProt P28223); assay: cell-based; conditions: IP assay; for 5-HT2A Rmax: % of Rmax of 5-HT; for EC50: duplicate determinations
5-HT2C = 5-HT2C (Homo sapiens (Human), UniProt P28335); assay: Ca2+/Fluo-4 assay, stable h5-HT2C-HEK293 cell line; conditions: for 5-HT2C agonist activity (n.a./w.a.): tested up to 50 μM; for 5-HT2C Rmax ± S.E.M: % of the Rmax of 5-HT;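 for all read-outs here: Agonist-induced intracellular Ca2+ rise read by Fluo-4 fluorescence in HEK293 cells stably expressing the human 5-HT2C receptor, each compound run in duplicate on three or more occasions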
Method: The functional properties of the compounds were characterised at stable HEK293 cell lines stably expressing the human 5-HT2A receptor or human 5-HT2C receptor in the Ca^2+/Fluo-4 assay essentially as previously described.^10 Briefly, the cells were split into poly-D-lysine-coated black 96-well plates with clear bottoms (6×10^4 cells/well). The following day the culture medium was aspirated and the cells were incubated in 50 μl assay buffer [Hanks Buffered Saline Solution containing 20 mM HEPES, 1 mM CaCl2, 1 mM MgCl2, 2.5 mM probenecid, pH 7.4] supplemented with 6 mM Fluo-4/AM at 37° C. for 1 hour. Next, the buffer was aspirated, the cells were washed once with 100 μl assay buffer, and then 100 μl assay buffer was added to the cells (in the antagonist experiments the compound was added at this point). […] The compounds were characterized in duplicate at least three times at each cell line.

5-HT2B = 5-HT2B (Homo sapiens (Human), UniProt P41595); assay: IP assay (Eurofins, IP1 HTRF), HEK293 cells; conditions: for 5-HT2B Rmax: % of Rmax of 5-HT; for Selectivity EC50 5-HT2B/EC50 5-HT2A: bounds are conservative estimates; for EC50: duplicate determinations, read-out: 5-HT2B EC50;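 for all read-outs here: agonist effect read as cellular IP1 production by HTRF using a europium cryptate anti-IP1 antibody donor and D2-labeled IP1 acceptor, eight compound concentrations in each cell line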
Method: The agonist properties of the compounds were characterized at HEK293 cell lines expressing the human 5-HT2A, human 5-HT2B or human 5-HT2C receptors in an IP assay essentially as previously described.^19 The testing was performed by Eurofins. In the assay, the agonist activity of the compound at the receptors is investigated by measuring its effect on IP1 production in the cell using the Homogeneous Time Resolved Fluorescence (HTRF) detection method. […] Following incubation, the cells were lysed, and the fluorescence acceptor (D2-labeled IP1) and fluorescence donor (anti-IP1 antibody labeled with europium cryptate) were added. […] The test compounds were characterized in eight different concentrations in duplicate at each of the three cell lines.

human 5-HT2A [2] = biological target: T1, human 5-HT2A; assay: cell-based; conditions: for 5-HT2A Rmax ± S.E.M: % of the Rmax of 5-HT; for Selectivity EC50 5-HT2C/EC50 5-HT2A: Ca2+/Fluo-4 assay, bounds are conservative estimates
[3] = agonist potency, n = 3-4, read-out: 5-HT2A EC50
[4] = agonist potency, n = 3-4, read-out: 5-HT2A [pEC50 ± S.E.M.] (converted)
[5] = agonist potency, n = 3-4, read-out: 5-HT2C EC50
[6] = agonist potency, n = 3-4, read-out: 5-HT2C [pEC50 ± S.E.M.] (converted)

5-HT2B, sequence (P41595 whole entry, looked up): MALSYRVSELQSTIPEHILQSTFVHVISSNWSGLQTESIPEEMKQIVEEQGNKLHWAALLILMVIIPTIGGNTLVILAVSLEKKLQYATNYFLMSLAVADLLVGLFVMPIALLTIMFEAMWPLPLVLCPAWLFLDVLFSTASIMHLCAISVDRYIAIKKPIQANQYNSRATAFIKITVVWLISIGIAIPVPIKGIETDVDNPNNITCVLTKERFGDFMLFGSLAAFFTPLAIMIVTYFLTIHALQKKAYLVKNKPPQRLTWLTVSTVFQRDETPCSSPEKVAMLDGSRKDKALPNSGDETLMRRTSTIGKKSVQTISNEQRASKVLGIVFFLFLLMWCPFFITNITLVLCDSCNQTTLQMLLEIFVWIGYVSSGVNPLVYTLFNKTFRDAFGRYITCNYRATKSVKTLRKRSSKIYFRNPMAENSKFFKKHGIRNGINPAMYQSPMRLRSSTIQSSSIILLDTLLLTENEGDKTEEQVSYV
5-HT2C, sequence (P28335 whole entry, looked up): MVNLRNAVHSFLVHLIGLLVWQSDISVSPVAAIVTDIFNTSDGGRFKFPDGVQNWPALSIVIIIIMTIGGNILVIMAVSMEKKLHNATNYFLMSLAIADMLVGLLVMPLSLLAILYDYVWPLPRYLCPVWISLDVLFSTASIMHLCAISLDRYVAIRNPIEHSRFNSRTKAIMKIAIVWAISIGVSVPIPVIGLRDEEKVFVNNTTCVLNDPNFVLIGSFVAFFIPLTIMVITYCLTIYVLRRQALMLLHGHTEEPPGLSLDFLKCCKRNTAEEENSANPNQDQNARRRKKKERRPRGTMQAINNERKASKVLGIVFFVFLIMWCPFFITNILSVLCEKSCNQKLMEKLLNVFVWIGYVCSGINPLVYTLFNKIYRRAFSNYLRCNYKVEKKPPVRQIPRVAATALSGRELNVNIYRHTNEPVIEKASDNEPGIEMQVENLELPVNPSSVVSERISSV

Row | SMILES | EC50 (human 5-HT2A [1]) [µM] | EC50 (5-HT2B) [µM] | EC50 (human 5-HT2A [2]; [3]) [µM] | EC50 (human 5-HT2A [2]; [4]) [µM] | 5-HT2A Rmax (human 5-HT2A [1]) [%] | EC50 (5-HT2C; [5]) [µM] | 5-HT2B Rmax (5-HT2B) [%] | Selectivity EC50 5-HT2B/EC50 5-HT2A (5-HT2B) | 5-HT2A Rmax ± S.E.M (human 5-HT2A [2]) [%] | Selectivity EC50 5-HT2C/EC50 5-HT2A (human 5-HT2A [2]) | further results
1 | COc1cc(C(F)(F)F)c(OC)cc1C1CCC(C)NC1 (single isomer, unassigned) [Compound 38, 5-(2,5-dimethoxy-4-(trifluoromethyl)phenyl)-2-methylpiperidine hydrochloride] | 0.12 | 2.2 | 0.16 | 0.155 | – | – | – | – | – | – | 5-HT2A Rmax (human 5-HT2A [1]; hydrochloride): 60%; 5-HT2C agonist activity (n.a./w.a.) (5-HT2C): w.a.; 5-HT2B Rmax (5-HT2B; hydrochloride): 29%; Selectivity EC50 5-HT2B/EC50 5-HT2A (5-HT2B; hydrochloride): 18; 5-HT2A Rmax ± S.E.M (human 5-HT2A [2]; hydrochloride): 38 ± 4%; Selectivity EC50 5-HT2C/EC50 5-HT2A (human 5-HT2A [2]; hydrochloride): >300^e
2 | CCOc1cc(CC)c(OC)cc1[C@@H]1CCCNC1 [Compound 43, (S)-3-(2-ethoxy-4-ethyl-5-methoxyphenyl)piperidine] | 0.67 | 1.1 | 0.14 | 0.138 | 45 | > 50 | 11 | 1.6 | 42 ± 6 | >1,000^e | –
3 | COc1cc([C@@H]2CCCNC2)c(OC2CC2)cc1C(F)(F)F [Compound 55, (S)-3-(2-cyclopropoxy-5-methoxy-4-(trifluoromethyl)phenyl)piperidine hydrochloride] | 3 | > 100 | 1.1 | 1.07 | 38 | – | – | >30^c | 30 ± 5 | >50^e | 5-HT2C agonist activity (n.a./w.a.) (5-HT2C): w.a.; 5-HT2B agonist activity (n.a.) (5-HT2B; up to 100 μM (Table 3)): n.a. [@ 100 μM]^a > (no agonist activity: the compound did not evoke significant responses at concentrations up to 100 μM)
4 | CCSc1cc([C@@H]2CCCNC2)c(OC)cc1C(F)(F)F.Cl [Compound 47, (S)-3-(2-methoxy-5-(ethylthio)-4-(trifluoromethyl)phenyl)piperidine Hydrochloride] | 0.13 | 0.62 | – | 0.0263 | 95 | 0.45 | 49 | 4.8 | 96 ± 3 | 17 | 5-HT2C Rmax ± S.E.M (5-HT2C): 43 ± 6%; EC50 (5-HT2C; [6]): 0.457 µM
5 | COc1cc(C(F)(F)F)c(OC)cc1C1CCCNC1C.Cl (stereo not shown) [Compound 35, 3-(2,5-dimethoxy-4-(trifluoromethyl)phenyl)-2-methylpiperidine hydrochloride] | 0.26 | 0.85 | 0.073 | – | 70 | 3 | 28 | 3.3 | 75 ± 4 | 41 | 5-HT2C Rmax ± S.E.M (5-HT2C): 21 ± 2%; EC50 (5-HT2C; [6]): 2.95 µM
6 | COc1cc([C@@H]2CCCNC2)c(OCF)cc1C(F)(F)F [Compound 39, (S)-3-(2-(fluoromethoxy)-5-methoxy-4-(trifluoromethyl)phenyl)piperidine] | 0.3 | 1.1 | 0.15 | – | 60 | – | 54 | 3.6 | 40 ± 5 | >300^e | –
7 | COc1cc(C(F)(F)F)c(OC)cc1C1CCC(C)NC1 (single isomer, unassigned) [Compound 37, 5-(2,5-dimethoxy-4-(trifluoromethyl)phenyl)-2-methylpiperidine hydrochloride] | 1.5 | 0.62 | 0.27 | 0.263 | – | 3.4 | – | – | – | – | 5-HT2A Rmax (human 5-HT2A [1]; hydrochloride): 110%; 5-HT2C Rmax ± S.E.M (5-HT2C): 33 ± 5%; 5-HT2B Rmax (5-HT2B; hydrochloride): 54%; Selectivity EC50 5-HT2B/EC50 5-HT2A (5-HT2B; hydrochloride): 0.4; 5-HT2A Rmax ± S.E.M (human 5-HT2A [2]; hydrochloride): 90 ± 10%; Selectivity EC50 5-HT2C/EC50 5-HT2A (human 5-HT2A [2]; hydrochloride): 13
8 | CCOc1cc([C@@H]2CCCNC2)c(OC)cc1C(F)(F)F.Cl [Compound 20, (S)-3-(5-ethoxy-2-methoxy-4-(trifluoromethyl)phenyl)piperidine hydrochloride] | 0.036 | 0.58 | 0.01 | 0.0102 | 79 | 0.29 | 57 | – | 95 ± 1 | – | –
9 | COc1cc([C@@H]2CCCNC2)c(OC)cc1SC.Cl [Compound 18, (S)-3-(2,5-dimethoxy-4-(methylthio)phenyl)piperidine hydrochloride] | 0.27 | 0.18 | – | 0.0257 | 72 | 0.51 | 64 | – | – | – | –
10 | COc1cc([C@@H]2CCCNC2)c(OC)cc1I [Compound 14, (S)-3-(4-Iodo-2,5-dimethoxyphenyl)piperidine] | 0.045 | 0.17 | – | 0.0372 | 72 | > 50 | 57 | – | – | – | –
11 | CCOc1cc(C(F)(F)F)c(OCC)cc1[C@@H]1CCCNC1.Cl [Compound 22, (S)-3-(2,5-diethoxy-4-(trifluoromethyl)phenyl)piperidine hydrochloride] | 0.17 | > 100 | 0.1 | 0.102 | 54 | – | – | >1,000^c | 47 ± 6 | >300^e | –
12 | COc1cc(C(F)(F)F)ccc1[C@@H]1CCCNC1 [Compound 53, (S)-3-(2-methoxy-4-(trifluoromethyl)phenyl)piperidine hydrochloride] | 0.25 | 0.94 | 0.069 | – | 87 | – | 51 | – | 68 ± 2 | – | 5-HT2C agonist activity (n.a./w.a.) (5-HT2C): w.a.
13 | CCCCc1cc(OC)c([C@@H]2CCCNC2)cc1OC [Compound 57, (S)-3-(4-butyl-2,5-dimethoxyphenyl)piperidine hydrochloride] | 0.19 | 0.35 | 0.27 | – | 62 | – | 18 | – | – | – | 5-HT2C agonist activity (n.a./w.a.) (5-HT2C): w.a.
14 | COc1cc(C(F)(F)F)c(OC)cc1[C@@H]1CNC[C@@H](C)C1.Cl (relative stereo) [Compound 36, cis or trans 3-(2,5-dimethoxy-4-(trifluoromethyl)phenyl)-5-methylpiperidine hydrochloride] | 0.041 | 0.12 | 0.048 | – | 61 | 0.4 | 39 | 2.9 | 68 ± 2 | 8.2 | 5-HT2C Rmax ± S.E.M (5-HT2C): 43 ± 6%; 5-HT2C [pEC50 ± S.E.M.] (5-HT2C; agonist potency, n = 3-4): [6.40 ± 0.09]; 5-HT2A [pEC50 ± S.E.M.] (human 5-HT2A [2]; agonist potency, n = 3-4): [7.32 ± 0.10]
15 | CCOc1cc([C@@H]2CCCNC2)c(OC)cc1CC.Cl [Compound 34, (S)-3-(5-ethoxy-4-ethyl-2-methoxyphenyl)piperidine hydrochloride] | 0.16 | 0.86 | 0.052 | 0.0513 | 78 | 0.84 | 50 | 5.4 | 88 ± 4 | 16 | 5-HT2C Rmax ± S.E.M (5-HT2C): 28 ± 4%
16 | COc1cc([C@@H]2CCCNC2)c(OC)cc1Br [Compound 12, (S)-3-(4-bromo-2,5-dimethoxyphenyl)piperidine] | 0.25 | 0.19 | 0.069 | – | 70 | > 50 | 48 | – | – | – | –
17 | COc1cc(C(F)(F)F)c(F)cc1[C@@H]1CCCNC1.Cl [Compound 51, (S)-3-(5-fluoro-2-methoxy-4-(trifluoromethyl)phenyl)piperidine hydrochloride] | 0.26 | 0.74 | 0.14 | – | 59 | – | 37 | 2.8 | 79 ± 5 | >100^e | –
18 | COc1cc([C@@H]2CCCNC2)c(OC)cc1Cl [Compound 10, (S)-3-(4-Chloro-2,5-dimethoxyphenyl)piperidine] | 0.38 | 0.24 | 0.066 | – | 62 | > 50 | 50 | – | – | – | 5-HT2C agonist activity (n.a./w.a.) (5-HT2C): n.a. [@ 50 μM]^a (no agonist activity: the compound did not evoke significant responses at concentrations up to 50 μM)
19 | COc1cc([C@@H]2CCCNC2)c(OC)cc1C.Cl [Compound 24, (S)-3-(2,5-dimethoxy-4-methylphenyl)piperidine hydrochloride] | 0.56 | 0.36 | 0.1 | 0.105 | 67 | – | 38 | – | – | – | –
20 | COc1cc([C@@H]2CCCNC2)c(OC)cc1SC(C)C [Compound 26, (S)-3-(4-(isopropylthio)-2,5-dimethoxyphenyl)piperidine] | 1.1 | 1.2 | 0.16 | 0.155 | 72 | – | 43 | – | – | – | –
21 | COc1cc([C@@H]2CCCNC2)c(OC)cc1C#N [Compound 16, (S)-2,5-dimethoxy-4-(piperidin-3-yl)benzonitrile] | 0.98 | 5 | 0.27 | 0.275 | 77 | > 50 | 45 | – | – | – | –
